From patent US9481648B2, “Kinase inhibitors” (Respivert Limited, priority 2013, dated 2016)
Like-named read-outs stand apart in the source and are kept apart here.

Legend:
B-Raf = B-Raf (Homo sapiens (Human), UniProt P15056); test: KINOMEscan binding of kinase to its standard ligand
Procedure: (§1) Kinase enzyme binding activities of compounds disclosed herein may be determined using a proprietary assay which measures active site-directed competition binding to an immobilized ligand (Fabian, M. A. et al., Nature Biotechnol., 2005, 23:329-336). These assays may be conducted by DiscoverX (formerly Ambit; San Diego, Calif.). The percentage inhibition produced by incubation with a test compound may be calculated relative to the non-inhibited control.

B-Raf (V600E) = B-Raf (V600E) (Homo sapiens (Human), UniProt P15056, V600E); test: as above
Procedure: as §1

p38 MAPKα (MAPK14) = p38 MAPKα (MAPK14) (Homo sapiens (Human), UniProt Q16539); test: p38 MAPKα enzyme inhibition (FRET, Z-LYTE; Method 2); type: biochemical
Syk = Syk (Homo sapiens (Human), UniProt P43405); test: Syk enzyme inhibition (FRET, Z-LYTE); type: biochemical
Procedure, shortened: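 Syk or c-Src enzyme (3000 or 2000 ng/mL solutions) was preincubated 2 h at RT with compound solutions at 1, 0.1, 0.01 or 0.001 µg/mL. Z-LYTE FRET peptide (8 µM solution) and ATP (800 µM solution for c-Src, 60 µM for Syk) were then added for 1 h, followed by protease development for 1 h. Phosphorylation was read as the coumarin/fluorescein emission ratio.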

[1] = test system: intestinal mucosa biopsies from the inflamed regions of the colon of ulcerative colitis (IBD) patients; test: Human biopsy assay (assay l); type: cell-based; conditions: 1 μg/mL
Procedure: Intestinal mucosa biopsies are obtained from the inflamed regions of the colons of IBD patients. The biopsy material is cut into small pieces (2-3 mm) and placed on steel grids in an organ culture chamber at 37° C. in a 5% CO2/95% O2 atmosphere in serum-free media. DMSO control or test compounds at the desired concentration are added to the tissue and incubated for 24 hr in the organ culture chamber. The supernatant is harvested for determination of IL-6, IL-8, IL-1β and TNFα levels by R&D ELISA.

[2] = test system: TNBS-induced colitis in BDF1 mice; test: TNBS-induced colitis in mice (in vivo iv); parameters: species or system mouse
[3] = test system: endotoxin (LPS)-induced uveitis in Lewis rats; test: Endotoxin-induced uveitis in rats (in vivo vi); parameters: species or system rat
Procedure: Male, Lewis rats (6-8 weeks old, Charles River UK Limited) are housed in cages of 3 at 19-21° C. with a 12 h light/dark cycle (07:00/19:00) and fed a standard diet of rodent chow and water ad libitum. Non-fasted rats are weighed, individually identified on the tail with a permanent marker, and receive a single intravitreal administration into the right vitreous humor (5 μL dose volume) of 100 ng/animal of LPS (Escherichia coli 0111:B4 prepared in PBS, Sigma Aldrich, UK) using a 32-gauge needle. Untreated rats are injected with PBS. […] Following euthanasia, the right eye of each animal is enucleated and dissected into front (anterior) and back (posterior) sections around the lens. Each section is weighed and homogenised in 500 μL of sterile phosphate buffered saline followed by 20 minutes centrifugation at 12000 rpm at 4° C.

[4] = Plasma pharmacokinetics in rats, single intravenous or oral administration; type: in vivo, rat (male Wistar)
Procedure: Studies were conducted by Sai Life Sciences (Hinjewadi, Pune, India) to investigate the plasma pharmacokinetics and total colon tissue distribution of compounds of the invention. In particular, pharmacokinetic studies were carried out in: • male C57BL/6 mice, following a single oral administration; and • male Wistar rats following a single intravenous or oral administration.

CYP2C9 = CYP2C9 (Homo sapiens (Human), UniProt P11712); test: CYP2C9 inhibition study; type: in vitro ADME; conditions: for inhibition at 15 µM: human, read-out: 15 μM % Inh
Procedure: Assessment of certain in vitro ADME (absorption, distribution, metabolism, and excretion) parameters for certain compounds of the invention was conducted by BioFocus (Saffron Walden, UK).

[5] = 24 hr, relative to DMSO control = 100%
[6] = 5 mg/kg orally, TNBS-induced colitis, mice, 2 days
[7] = TNBS-induced colitis in mice, 1 mg/kg oral
[8] = Table 7a, eyes of LPS-stimulated rats, 1 mg/mL
[9] = male, Wistar, rat, plasma, po, 5 mg/kg
[10] = male, Wistar, rat, plasma, rats, intravenous 0.25 mg/kg

CYP2C9, sequence (P11712 whole entry): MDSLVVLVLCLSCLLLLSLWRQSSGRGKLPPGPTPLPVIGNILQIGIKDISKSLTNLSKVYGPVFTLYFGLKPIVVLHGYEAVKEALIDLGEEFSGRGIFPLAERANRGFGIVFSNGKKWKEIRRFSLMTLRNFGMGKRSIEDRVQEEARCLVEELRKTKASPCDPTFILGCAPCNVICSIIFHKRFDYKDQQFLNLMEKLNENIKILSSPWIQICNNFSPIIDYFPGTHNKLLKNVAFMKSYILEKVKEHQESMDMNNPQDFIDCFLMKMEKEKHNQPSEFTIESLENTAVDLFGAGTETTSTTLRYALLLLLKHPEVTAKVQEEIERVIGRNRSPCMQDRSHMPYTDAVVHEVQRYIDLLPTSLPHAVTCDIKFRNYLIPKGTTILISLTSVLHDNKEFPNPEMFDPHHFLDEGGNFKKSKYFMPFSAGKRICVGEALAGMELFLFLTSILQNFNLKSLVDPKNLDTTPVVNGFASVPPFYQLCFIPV
p38 MAPKα (MAPK14), sequence (Q16539 whole entry): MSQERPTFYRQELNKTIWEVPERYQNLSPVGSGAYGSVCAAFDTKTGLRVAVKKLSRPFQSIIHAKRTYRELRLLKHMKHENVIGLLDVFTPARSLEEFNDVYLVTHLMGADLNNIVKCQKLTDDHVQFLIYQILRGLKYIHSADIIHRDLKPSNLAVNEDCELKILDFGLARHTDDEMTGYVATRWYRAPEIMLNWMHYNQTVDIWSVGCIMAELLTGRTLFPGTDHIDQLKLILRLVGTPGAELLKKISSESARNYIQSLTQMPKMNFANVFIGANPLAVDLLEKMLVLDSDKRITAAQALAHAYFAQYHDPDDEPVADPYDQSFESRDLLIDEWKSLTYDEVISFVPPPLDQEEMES
B-Raf (V600E), sequence (P15056 whole entry V600E): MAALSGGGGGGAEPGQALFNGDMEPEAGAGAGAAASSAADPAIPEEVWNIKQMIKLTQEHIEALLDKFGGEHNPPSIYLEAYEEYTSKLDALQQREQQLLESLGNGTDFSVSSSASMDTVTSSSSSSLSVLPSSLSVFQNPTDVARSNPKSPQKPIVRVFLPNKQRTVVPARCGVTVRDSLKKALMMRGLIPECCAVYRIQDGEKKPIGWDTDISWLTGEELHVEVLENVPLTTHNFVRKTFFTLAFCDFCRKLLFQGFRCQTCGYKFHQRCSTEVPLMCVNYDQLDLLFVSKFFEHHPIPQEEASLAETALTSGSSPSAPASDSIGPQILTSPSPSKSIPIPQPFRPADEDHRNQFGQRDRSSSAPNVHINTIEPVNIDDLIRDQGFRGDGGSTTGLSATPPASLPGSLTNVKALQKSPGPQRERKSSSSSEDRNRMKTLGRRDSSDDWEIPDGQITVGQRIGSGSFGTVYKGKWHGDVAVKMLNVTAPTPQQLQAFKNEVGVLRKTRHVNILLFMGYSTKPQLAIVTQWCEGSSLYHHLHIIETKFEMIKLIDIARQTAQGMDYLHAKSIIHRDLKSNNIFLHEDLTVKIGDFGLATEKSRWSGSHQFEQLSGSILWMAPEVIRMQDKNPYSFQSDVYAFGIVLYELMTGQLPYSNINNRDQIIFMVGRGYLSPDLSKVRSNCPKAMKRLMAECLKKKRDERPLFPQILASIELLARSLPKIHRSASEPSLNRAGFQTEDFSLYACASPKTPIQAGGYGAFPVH
B-Raf, sequence (P15056 whole entry): as the sequence (P15056 whole entry V600E) above, with E600V counted along it

COCCOCCOCCOc1cc(Nc2nccc(Oc3ccc(NC(=O)Nc4cc(C(C)(C)C)cc(NS(C)(=O)=O)c4OC)c4ccccc34)n2)cc(OC)c1 [Example 4, N-(5-(tert-Butyl)-2-methoxy-3-(3-(4-((2-((3-methoxy-5-(2-(2-(2-methoxyethoxy)ethoxy)-ethoxy)phenyl)amino)pyrimidin-4-yl)oxy)naphthalen-1-yl)ureido)phenyl)methanesulfonamide]
effect on the binding of the kinase B-Raf to its standard ligand (B-Raf): did not have any significant effect
effect on the binding of the kinase B-Raf (V600E) to its standard ligand (B-Raf (V600E)): did not have any significant effect
IC50 (p38 MAPKα (MAPK14)): 91 nM
IC50 (Syk): 86 nM
cytokine (IL-1β, IL-6 and IL-8) release compared to the DMSO control ([1]; 24 hours, biopsies from ulcerative colitis patients): significantly inhibited
Cytokine release from biopsies of UC patients: IL-1β release [1, 5]: 17 ± 21%
Cytokine release from biopsies of UC patients: IL-6 release [1, 5]: 5 ± 1%
Cytokine release from biopsies of UC patients: IL-8 release [1, 5]: 2 ± 1%
inflammatory cell infiltrate in the reticular and laminar propria zones [2, 6]: marked reduction
ulcer grade and epithelial repair compared to the vehicle control [2, 6]: marked improvements
LP inflammation [2, 7]: 2.6 ± 0.3
Ulcer grade [2, 7]: 3.6 ± 0.4
activity in in vivo model of colonic inflammation (histopathology analysis) ([2]; TNBS-induced colitis, mice, conducted over 2 days): substantial activity
IL-1β Anterior [3, 8]: 20.3 ± 18.9 pg/mL
IL-1β Posterior [3, 8]: 7.6 ± 7.6 pg/mL
IL-6 Anterior [3, 8]: 642.3 ± 48.9 pg/mL
IL-6 Posterior [3, 8]: 897.9 ± 120.3 pg/mL
MCP-1 Anterior [3, 8]: 0 ± 0 pg/mL
MCP-1 Posterior [3, 8]: 1.0 ± 1.0 pg/mL
cytokine levels in both the anterior and posterior segments of the eyes ([3]; rats treated with intravitreal endotoxin LPS, topical dosing): significantly reduced
AUC(0-inf) [4, 9]: 40.8 ng·h/mL
AUC(0-t) [4, 9]: 27 ng·h/mL
Cmax [4, 9]: 15.5 ng/mL
Tmax [4, 9]: 30 min
AUC(0-inf) [4, 10]: 563 ng·h/mL
AUC(0-t) [4, 10]: 558 ng·h/mL
half-life [4, 10]: 48 min
C0 ([4]; male, Wistar, rat, plasma, rats, intravenous 0.25 mg/kg in 5% DMSO-7.5% Solutol HS15-87.5% normal saline): 3040 ng/mL
Vd ([4]; male, Wistar, rat, plasma, rats, intravenous 0.25 mg/kg, read-out: Vss): 0.2 L/kg
CI ([4]; rats, intravenous 0.25 mg/kg): 7.9 mL/min/kg
Fpo ([4]; rats, oral 5 mg/kg, vehicle C (Example 4) or B): 0.2%
IC50 (CYP2C9; CYP2C9, 0 min preincubation): > 15000 nM
IC50 (CYP2C9; CYP2C9, 30 min preincubation): > 15000 nM
inhibition at 15 µM (CYP2C9; CYP2C9, 0 min preincubation): 24%
inhibition at 15 µM (CYP2C9; CYP2C9, 30 min preincubation): 41%
